In patent US11078204B2, “Heterocyclic derivatives as PI3K inhibitors” (Incyte Corporation, priority 2018, dated 2021):
Where a name gives a salt, the structure may show the parent alone.

Columns and labels:
[1] = target: PI3Kγ (p110γ) Recombinant Human Protein (Homo sapiens (Human), UniProt P48736); test: PI3K-γ Scintillation Proximity Assay; assay type: biochemical; settings: 20 μM PIP2, 2 μM ATP, 13 nM PI3Kγ, 120 min
Text: Example B. PI3K-γ Scintillation Proximity Assay
(§1) [γ-^33P]ATP (10 mCi/mL) and Wheat Germ Agglutinin (WGA) YSi SPA Scintillation Beads was purchased from Perkin Elmer (Waltham, Mass.). Lipid kinase substrate, D-myo-Phosphatidylinositol 4,5-bisphosphate (PtdInS(4,5)P2)D (+)-sn-1,2-di-O-octanoylglyceryl, 3-O-phospho linked (PIP2), CAS 204858-53-7, was purchased from Echelon Biosciences (Salt Lake City, Utah). PI3Kγ (p110γ) Recombinant Human Protein was purchased from Life technology (Grand Island, N.Y.). ATP, MgCl2, DTT, EDTA, MOPS and CHAPS were purchased from Sigma Aldrich (St. Louis, Mo.).
(§2) The kinase reaction was conducted in polystyrene 384-well Greiner Bio-one white plate from Thermo Fisher Scientific in a final volume of 25 μL. Inhibitors were first diluted serially in DMSO and added to the plate wells before the addition of other reaction components. The final concentration of DMSO in the assay was 2%. The PI3Kγ assay was carried out at room temperature in 20 mM MOPS, pH 6.7, 10 mM MgCl2, 5 mM DTT and CHAPS 0.03%. Reactions were initiated by the addition of ATP, the final reaction mixture consisted of 20 μM PIP2, 2 μM ATP, 0.5 μCi [γ-^33p]ATP, 13 nM PI3Kγ. Reactions were incubated for 120 min and terminated by the addition of 40 μL SPA beads suspended in quench buffer: 163 mM potassium phosphate pH 7.8, 20% glycerol, 25 mM EDTA. The final concentration of SPA beads is 1.0 mg/mL. After the plate sealing, plates were shaken overnight at room temperature and centrifuged at 1500 rpm for 10 min, the radioactivity of the product was determined by scintillation counting on Topcount (PerkinElmer). IC50 determination was performed by fitting the curve of percent of the solvent control activity versus the log of the inhibitor concentration using the GraphPad Prism 6.0 software.

[2] = test system: Phosphorylated Ribosomal Protein S6 (RPS6) in THP-1 cells; test: THP-1 RPS6 ELISA Assay; assay type: cell-based; settings: Homo sapiens, 2 hours compound, 10 nM MCP-1 for 15 minutes, Phospho-RPS6 ELISA, read-out: PI3Kγ_THP1_RPS6_ELISA IC50
Experimental: Example A. THP-1 RPS6 ELISA Assay To measure the Phosphorylated Ribosomal Protein S6 (RPS6) in cell lysates, THP-1 cells (Human Acute Monocytic Leukemia) are purchased from ATCC (Manassas, Va.) and maintained in RPMI with 10% FBS (Gibco/Life Technologies, Carlsbad, Calif.). For the assay, THP-1 cells are serum starved overnight in RPMI, then plated in RPMI (2×10^5 cells/well in 90 μL) into 96-well flat-bottom tissue culture treated plates (Corning, Corning, N.Y.), in the presence or absence of a concentration range of test compounds. Covered plates are incubated for 2 hours at 37° C., 5% CO2 then treated with or without 10 nM MCP-1 (MYBioSource, San Diego, Calif.) for 15 minutes at 37° C., 5% CO2. Plates are centrifuged at 1600 RPM and supernatants are removed. Cells are lysed in Lysis Buffer (Cell Signaling, Danvers, Mass.) with Protease Inhibitor (Calbiochem/EMD, Germany), PMSF (Sigma, St Louis Mo.), HALTS (Thermo Fisher, Rockford, Ill.) for 30 min on wet ice. Cell lysates are frozen at −80° C. before testing. The lysates are tested in the Human/Mouse/Rat Phospho-RPS6 ELISA (R&D Systems, Inc. Minn, Minn.). The plate is measured using a microplate reader (SpectraMax M5-Molecular Devices, LLC Sunnyvale, Calif.) set to 450 nm with a wavelength correction of 540. IC50 determination is performed by fitting the curve of inhibitor percent inhibition versus the log of the inhibitor concentration using the GraphPad Prism 5.0 software.

[3] = target: PI3Kδ (p110δ/p85α) Recombinant Human Protein (Homo sapiens (Human), UniProt O00329); test: PI3Kδ Scintillation Proximity Assay; assay type: biochemical; settings: 20 μM PIP2, 2 μM ATP, 3.4 nM PI3Kδ, 120 min
Text: Example C. PI3Kδ Scintillation Proximity Assay
as §1, with “PI3Kδ (p110δ/p85α)” for “PI3Kγ (p110γ)”, “Eurofins (St Charles, Mo.).” for “Life technology (Grand Island, N.Y.).”
as §2, with “PI3Kδ” for “PI3Kγ”, “[γ-^33P]ATP, 3.4” for “[γ-^33p]ATP, 13”, “PI3Kδ.” for “PI3Kγ.”

PI3Kδ (p110δ/p85α) Recombinant Human Protein, sequence (O00329 whole entry): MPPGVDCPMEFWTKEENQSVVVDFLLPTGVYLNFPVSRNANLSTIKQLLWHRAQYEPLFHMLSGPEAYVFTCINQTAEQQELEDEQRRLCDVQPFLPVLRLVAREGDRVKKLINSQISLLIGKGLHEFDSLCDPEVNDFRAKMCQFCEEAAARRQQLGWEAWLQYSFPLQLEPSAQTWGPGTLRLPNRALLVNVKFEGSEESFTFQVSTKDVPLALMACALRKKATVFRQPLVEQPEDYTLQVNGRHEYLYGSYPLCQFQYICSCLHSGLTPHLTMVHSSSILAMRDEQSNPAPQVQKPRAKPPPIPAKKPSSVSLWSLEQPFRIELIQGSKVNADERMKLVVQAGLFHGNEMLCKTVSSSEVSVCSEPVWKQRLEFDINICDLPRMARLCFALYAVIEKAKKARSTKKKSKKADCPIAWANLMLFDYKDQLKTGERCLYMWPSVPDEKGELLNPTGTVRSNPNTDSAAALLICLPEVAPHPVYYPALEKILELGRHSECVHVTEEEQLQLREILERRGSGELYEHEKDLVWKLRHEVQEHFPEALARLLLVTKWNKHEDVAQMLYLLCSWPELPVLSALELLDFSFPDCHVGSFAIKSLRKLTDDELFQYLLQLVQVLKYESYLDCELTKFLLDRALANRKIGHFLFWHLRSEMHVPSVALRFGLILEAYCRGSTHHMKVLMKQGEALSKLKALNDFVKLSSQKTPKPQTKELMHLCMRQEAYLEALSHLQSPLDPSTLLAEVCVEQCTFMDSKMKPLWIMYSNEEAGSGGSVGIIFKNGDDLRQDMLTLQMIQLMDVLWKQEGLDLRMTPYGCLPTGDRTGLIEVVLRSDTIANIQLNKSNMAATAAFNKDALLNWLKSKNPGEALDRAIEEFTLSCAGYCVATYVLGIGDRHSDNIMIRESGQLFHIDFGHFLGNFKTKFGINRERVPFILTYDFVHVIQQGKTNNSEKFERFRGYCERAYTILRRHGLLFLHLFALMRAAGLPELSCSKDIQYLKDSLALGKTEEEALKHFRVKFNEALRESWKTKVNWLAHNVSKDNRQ
PI3Kδ (p110δ/p85α) Recombinant Human Protein, sequence (P27986 whole entry partner): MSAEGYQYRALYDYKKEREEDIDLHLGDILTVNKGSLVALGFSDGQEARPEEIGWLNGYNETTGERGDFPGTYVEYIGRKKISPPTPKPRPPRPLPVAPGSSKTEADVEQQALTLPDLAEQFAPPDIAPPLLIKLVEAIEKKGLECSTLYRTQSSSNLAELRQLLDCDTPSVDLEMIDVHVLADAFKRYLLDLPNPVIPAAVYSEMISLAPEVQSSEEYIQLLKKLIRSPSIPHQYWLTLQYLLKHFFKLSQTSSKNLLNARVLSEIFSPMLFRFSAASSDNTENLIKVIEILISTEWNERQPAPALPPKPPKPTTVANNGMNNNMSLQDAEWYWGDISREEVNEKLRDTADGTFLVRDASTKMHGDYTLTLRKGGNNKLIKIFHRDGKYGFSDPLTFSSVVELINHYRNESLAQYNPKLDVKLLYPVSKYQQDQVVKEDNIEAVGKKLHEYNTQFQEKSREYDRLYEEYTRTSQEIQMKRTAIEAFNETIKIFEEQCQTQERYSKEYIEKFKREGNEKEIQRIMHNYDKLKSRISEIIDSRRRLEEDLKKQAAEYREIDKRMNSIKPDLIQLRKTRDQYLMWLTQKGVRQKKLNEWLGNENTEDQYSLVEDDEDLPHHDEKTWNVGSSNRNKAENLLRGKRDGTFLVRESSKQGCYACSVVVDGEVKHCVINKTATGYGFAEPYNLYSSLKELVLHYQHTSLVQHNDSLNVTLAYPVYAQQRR
PI3Kγ (p110γ) Recombinant Human Protein, sequence (P48736 whole entry): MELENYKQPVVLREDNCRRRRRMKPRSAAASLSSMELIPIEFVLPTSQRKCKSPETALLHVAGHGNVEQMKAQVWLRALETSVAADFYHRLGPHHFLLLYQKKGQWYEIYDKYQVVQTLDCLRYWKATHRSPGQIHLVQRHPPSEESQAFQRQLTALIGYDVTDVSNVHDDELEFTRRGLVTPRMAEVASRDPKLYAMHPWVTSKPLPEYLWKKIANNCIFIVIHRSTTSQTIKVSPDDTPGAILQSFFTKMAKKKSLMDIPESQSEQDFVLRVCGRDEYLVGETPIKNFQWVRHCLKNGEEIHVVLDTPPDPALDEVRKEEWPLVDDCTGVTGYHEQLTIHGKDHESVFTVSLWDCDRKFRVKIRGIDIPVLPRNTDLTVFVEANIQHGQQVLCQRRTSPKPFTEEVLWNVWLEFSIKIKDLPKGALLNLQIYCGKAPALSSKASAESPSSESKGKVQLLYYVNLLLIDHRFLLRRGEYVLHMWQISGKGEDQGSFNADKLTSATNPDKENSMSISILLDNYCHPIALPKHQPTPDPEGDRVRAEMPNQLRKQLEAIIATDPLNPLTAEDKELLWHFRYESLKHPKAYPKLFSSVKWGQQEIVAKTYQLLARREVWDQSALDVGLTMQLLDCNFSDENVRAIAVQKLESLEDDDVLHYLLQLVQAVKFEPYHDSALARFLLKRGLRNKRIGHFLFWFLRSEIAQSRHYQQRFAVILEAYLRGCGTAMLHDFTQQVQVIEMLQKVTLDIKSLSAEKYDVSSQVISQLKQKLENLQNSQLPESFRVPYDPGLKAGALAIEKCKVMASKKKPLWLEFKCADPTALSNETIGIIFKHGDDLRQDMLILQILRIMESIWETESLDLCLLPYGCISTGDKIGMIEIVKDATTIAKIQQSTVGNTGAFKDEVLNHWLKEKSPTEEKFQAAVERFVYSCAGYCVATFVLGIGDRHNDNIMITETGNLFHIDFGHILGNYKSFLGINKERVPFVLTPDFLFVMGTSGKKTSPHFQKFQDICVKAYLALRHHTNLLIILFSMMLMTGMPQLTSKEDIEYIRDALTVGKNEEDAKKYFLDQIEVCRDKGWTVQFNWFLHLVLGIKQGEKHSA

Row | Structure (SMILES) | IC50 [1] | IC50 [2] | IC50 [3]
1 | C[C@@H](C1CC1)N1Cc2cc(-c3cnc4c(N)nc(-c5cnn(C)c5)cn34)cc(S(C)(=O)=O)c2C1=O [Example 35, (S)-5-(8-Amino-6-(1-methyl-1H-pyrazol-4-yl)imidazo[1,2-a]pyrazin-3-yl)-2-(1-cyclopropylethyl)-7-(methylsulfonyl)isoindolin-1-one, trifluoroacetate salt] | ≤ 0.1 µM | ≤ 0.5 µM | ≤ 0.5 µM
2 | CC(C1CC1)n1cc2cc(-c3cnc4c(N)ncnn34)cnc2n1 (stereo not drawn) [Example 25, 7-(2-(1-Cyclopropylethyl)-2H-pyrazolo[3,4-b]pyridin-5-yl)imidazo[2,1-f][1,2,4]triazin-4-amine trifluoroacetate salt] | ≤ 0.1 µM | ≥ 1 µM | ≥ 2 µM
3 | C[C@@H](C1CC1)N1Cc2cc(-c3cnc4c(N)nc(C(=O)NC5CCOCC5)cn34)cc(S(C)(=O)=O)c2C1=O [Example 29, (S)-8-Amino-3-(2-(1-cyclopropylethyl)-7-(methylsulfonyl)-1-oxoisoindolin-5-yl)-N-(tetrahydro-2H-pyran-4-yl)imidazo[1,2-a]pyrazine-6-carboxamide, trifluoroacetate salt] | ≤ 0.1 µM | < 1 µM | ≤ 0.5 µM
4 | C[C@@H](C1CC1)N1Cc2cc(-c3cnc4c(N)ncnn34)cc(S(C)(=O)=O)c2C1=O [Example 8, (S)-5-(4-Aminoimidazo[2,1-f][1,2,4]triazin-7-yl)-2-(1-cyclopropylethyl)-7-(methylsulfonyl)isoindolin-1-one] | ≤ 0.1 µM | < 1 µM | ≤ 0.5 µM
5 | C[C@@H](C1CC1)N1Cc2cc(-c3cnc4c(N)nc(C(=O)NC5CCOCC5O)cn34)ccc2C1=O (mixture of isomers) [Example 32, 8-Amino-3-(2-((S)-1-cyclopropylethyl)-1-oxoisoindolin-5-yl)-N-(3-hydroxytetrahydro-2H-pyran-4-yl)imidazo[1,2-a]pyrazine-6-carboxamide, trifluoroacetate salt] | ≤ 0.1 µM | ≥ 1 µM | ≥ 2 µM
6 | CC(=O)c1cc(-c2cnc3c(N)ncnn23)cc2c1C(=O)N([C@@H](C)C1CC1)C2 [Example 15, (S)-7-Acetyl-5-(4-aminoimidazo[2,1-f][1,2,4]triazin-7-yl)-2-(1-cyclopropylethyl)isoindolin-1-one trifluoroacetate salt] | ≤ 0.1 µM | ≥ 1 µM | ≤ 0.5 µM
7 | CC(C)N1Cc2cc(-c3cnc4c(N)ncnn34)ccc2C1=O [Example 14, 5-(4-Aminoimidazo[2,1-f][1,2,4]triazin-7-yl)-2-isopropylisoindolin-1-one trifluoroacetate salt] | ≤ 0.1 µM | ≥ 1 µM | ≥ 2 µM
8 | CC(c1ccccc1)N1Cc2cc(-c3cnc4c(N)ncnn34)ccc2C1=O (racemic) [Example 12, 5-(4-Aminoimidazo[2,1-f][1,2,4]triazin-7-yl)-2-(1-phenylethyl)isoindolin-1-one, trifluoroacetate salt] | ≤ 0.1 µM | ≥ 1 µM | ≤ 0.5 µM
9 | CC(O)c1cc(-c2cnc3c(N)ncnn23)cc2c1C(=O)N([C@@H](C)C1CC1)C2 (mixture of isomers) [Example 16, 5-(4-Aminoimidazo[2,1-f][1,2,4]triazin-7-yl)-2-((S)-1-cyclopropylethyl)-7-(1-hydroxyethyl)isoindolin-1-one trifluoroacetate salt] | ≤ 0.1 µM | ≥ 1 µM | ≤ 0.5 µM

Further lines, results first:

Row | IC50 [1] | IC50 [2] | IC50 [3] | Structure (SMILES)
10 | ≤ 0.1 µM | < 1 µM | ≤ 0.5 µM | C[C@@H](C1CC1)N1Cc2cc(-c3cnc4c(N)nc(C(=O)NC56CC(C5)C6)cn34)cc(S(C)(=O)=O)c2C1=O (single isomer, unassigned) [Example 29b, trifluoroacetate salt]
11 | ≤ 0.1 µM | ≥ 1 µM | < 2 µM | C[C@@H](C1CC1)N1Cc2cc(-c3cnc4c(N)nc(C(F)(F)F)cn34)cc(S(C)(=O)=O)c2C1=O [Example 3, (S)-5-(8-Amino-6-(trifluoromethyl)imidazo[1,2-a]pyrazin-3-yl)-2-(1-cyclopropylethyl)-7-(methylsulfonyl)isoindolin-1-one]
12 | ≤ 0.1 µM | < 1 µM | < 2 µM | C[C@@H](C1CC1)N1Cc2cc(-c3cnc4c(N)ncnn34)cc(C(C)(C)O)c2C1=O [Example 17, (S)-5-(4-Aminoimidazo[2,1-f][1,2,4]triazin-7-yl)-2-(1-cyclopropylethyl)-7-(2-hydroxypropan-2-yl)isoindolin-1-one trifluoroacetate salt]
13 | ≤ 0.1 µM | ≤ 0.1 µM | ≤ 0.1 µM | Cc1ncc(-c2cn3c(-c4cc5c(c(S(C)(=O)=O)c4)C(=O)N([C@@H](C)C4CC4)C5)cnc3c(N)n2)s1 [Example 34, (S)-5-(8-Amino-6-(2-methylthiazol-5-yl)imidazo[1,2-a]pyrazin-3-yl)-2-(1-cyclopropylethyl)-7-(methylsulfonyl)isoindolin-1-one, trifluoroacetate salt]
14 | ≤ 0.1 µM | ≥ 1 µM | < 2 µM | C[C@@H](C1CC1)N1Cc2cc(-c3cnc4c(N)nc(C(F)(F)F)cn34)cc(C(O)(CO)C(F)(F)F)c2C1=O (mixture of isomers) [Example 40, 5-(8-Amino-6-(trifluoromethyl)imidazo[1,2-a]pyrazin-3-yl)-2-((S)-1-cyclopropylethyl)-7-(1,1,1-trifluoro-2,3-dihydroxypropan-2-yl)isoindolin-1-one, trifluoroacetate salt]
15 | ≤ 0.1 µM | < 1 µM | ≤ 0.5 µM | C[C@@H](C1CC1)N1Cc2cc(-c3cnc4c(N)nc(C(=O)N5CC(C)(C)C5)cn34)cc(S(C)(=O)=O)c2C1=O [Example 29c, (S)-5-(8-Amino-6-(3,3-dimethylazetidine-1-carbonyl)imidazo[1,2-a]pyrazin-3-yl)-2-(1-cyclopropylethyl)-7-(methylsulfonyl)isoindolin-1-one, trifluoroacetate salt]
